This is an account of results in US20160115129A1, “NOVEL F[…] ACID ESTER COMPOUND AND SALT THEREOF” (TAIHO PHARMACEUTICAL CO., LTD., priority 2013, published 2016).

The test system of one data set is female SD rats. The data set can be described thus: Urethral baseline pressure (intraurethral pressure) in anesthetized rats after oral administration. In kind it is in vivo. The settings on record: 10 mg/kg oral, 11-week-old female SD rats, 30 minutes after 8 hours from administration, compared with solvent administration group (Student's t-test), FIG. 1. How it is done:
The compounds of the present invention and a comparative compound were individually orally administered in an amount of 10 mg/kg to 11-week-old female SD rats (test substance-administration groups) and distilled water was orally administered as the control to 11-week-old female SD rats (solvent administration group, n=8). As the comparative compound, 4-piperidyl 2,2-diphenyl-2-propoxyacetate was used (Comparative Example).
Seven and a half hours after administration, each rat was anesthetized by intraperitoneal administration of 1.2 g/kg of urethane. Thereafter, the ureters and the area between the urethra and the bladder were ligated, and a vesical fistula catheter and a catheter for measuring intraurethral pressure were inserted and indwelled in the bladder and the urethra. […] Intravesical pressure and intraurethral pressure were recorded via a polygraph connected with the pressure transducers. […] Physiological saline was injected into the urethra using the micro syringe pump connected to the urethra at 3 mL/hr, and the changes in intraurethral pressure associated with the rhythmic contraction were recorded.
The mean values of the urethral baseline pressure for the solvent administration group and the test substance-administration groups were calculated, and the results were indicated as mean±SE. […]

One may read the melting point as the temperature, or range, at which the solid turns liquid. For `Cl.O=C(OC1CCNCC1)C(OCCCF)(c1ccccc1)c1ccccc1`, the melting point lay in the range of 135 to 136 °C.
In the case of `Cl.O=C(OC1CCNCC1)C(OCC(F)(F)C(F)(F)F)(c1ccccc1)c1ccccc1`, the melting point was 98 to 100 °C.
On the same count and under the same terms, the figure for `Cl.O=C(COCCC(F)F)OC1CCNCC1` is 130 to 132 °C.
Still for that read-out and setting: to `Cl.O=C(OC1CCNCC1)C(OCCC(F)(F)F)(c1ccccc1)c1ccccc1` belongs 152 to 153 °C.
Same read-out and setting: the figure for `Cl.O=C(OC1CCNCC1)C(OCC(F)(F)C(F)F)(c1ccccc1)c1ccccc1` is 128 to 130 °C; for `Cl.O=C(OC1CCNCC1)C(OCC(F)F)(c1ccccc1)c1ccccc1` it is 172 to 174 °C.
On to `CCCOC(C(=O)OC1CCNCC1)(c1ccccc1)c1ccccc1` [comparative compound, 4-piperidyl 2,2-diphenyl-2-propoxyacetate], for which the urethral baseline pressure entry is “little effect” in the data set with female SD rats and “did not have a significant effect” in the data set on female SD rats (listed as Comparative Example).
